Data taken from US5622936A (priority 1988, dated 1997).

Key:
[1] = system: retrothelial sarcoma cells
[2] = Stability in methanolic solution (TLC analysis); format: physicochemical; conditions: room temperature
glycosidases = test: Enzymatic cleavage of the glycosidic bond by glycosidases (release of IPM); format: biochemical; conditions: glycosidases / enzyme mixtures, TLC, NBP detection
Procedure: On incubation of the glycosides in HEPES or water with corresponding glycosidases a rapid cleavage of the glycosidic bond could be observed.
(§1) Because each in 50 and 51 two glycosidic bonds are present, showing the same (51β) or a different configuration (f.i. 50α), along with single glucosidases enzyme mixtures were used to check the enzymatic release of IPM. The enzymatic cieavage of the pure anomeric conjugates 50 and 51 was monitored by TLC; intact conjugates or the cleavage products 28α, 28β or IPM were detected with NBP.

[3] = Acute toxicity in male CD2 F1 mice with autopsy; format: in vivo, mouse; conditions: 100 and 1000 mg/kg i.p.
Text: (§2) Autopsy of the animals after 28 days gave no findings. […] The result of autopsy (among others liver, kidneys, spleen, brain, bone marrow) on day 15 after the onset of treatment gave no finding.

bone-marrow = test: Bone-marrow toxicity
[4] = Toxicity in BD6 rats with transplanted 1C32 tumor with autopsy; format: in vivo, rat
Text: as §2

[5] = system: mammary tumor cell-line 1C29; test: Cytotoxic activity in vitro, mammary tumor cell line 1C29; format: cell-based, rat
Text: (§3) This was confirmed by measuring the biological efficiency, namely the cytotoxic activity in vitro by studies done on a murine retrothelial sarcoma, and on rat mammary tumor cell lines, and on Eb/Esb cell lines.

[6] = system: mammary tumor cell-line 1C32; test: Cytotoxic activity in vitro, mammary tumor cell line 1C32; format: cell-based, rat
Text: as §3

[7] = system: mammary tumor cell-line 1C39; test: Cytotoxic activity in vitro, mammary tumor cell line 1C39; format: cell-based, rat
Text: as §3

β-glucosidase = test: Cleavage by a single enzyme, β-glucosidase (TLC); format: biochemical
Text: as §1

## O=P(O)(NCCCl)NCCCl [IPM]
[1]
  cytotoxicity: cytotoxicity

## O=P(NCCCl)(NCCCl)OC1O[C@H](CO)[C@@H](O[C@@H]2O[C@H](CO)[C@@H](O)[C@H](O)[C@H]2O)[C@H](O)[C@H]1O (some centres unmarked) [Compound 51]
[2]
  stability: stable

## O=P(NCCCl)(NCCCl)O[C@H]1O[C@H](CO)[C@@H](O[C@@H]2O[C@H](CO)[C@@H](O)[C@H](O)[C@H]2O)[C@H](O)[C@H]1O [Compound 51α, 4-O-(β-D-glucopyranosyl) α-D-glucopyranosyl N,N'-di-(2-chlorethyl) phosphoric acid diamide]
glycosidases
  cleavage required for the release of IPM: cleavage of two different glycosidic bonds was required

## O=P(NCCCl)(NCCCl)O[C@@H]1O[C@H](CO)[C@@H](O)[C@H](O)[C@H]1O [Compound 28β, β-D-Glucopyranosyl N,N'-di-(2-chloroethyl) phosphoric acid diamide]
[3]
  acute toxicity: no acute toxicity could be observed
[3]; after 28 days
  autopsy: no findings
bone-marrow
  bone-marrow toxicity: very low

## O=P(NCCCl)(NCCCl)OC1O[C@H](CO)[C@H](O)[C@H](O)[C@H]1O (some centres unmarked) [Gal-IPM]
[4]; BD6 rats with transplanted 1C32 tumor, 5-122.5 and 5-245 mg/kg, resp.
  toxicity: did not show any toxicity
[4]; day 15 after onset of treatment, liver, kidneys, spleen, brain, bone marrow
  autopsy: no finding

## O=P(NCCCl)(NCCCl)O[C@@H]1O[C@H](CO)[C@H](O)[C@H](O)[C@H]1O [Compound 29β, β-D-Galactopyranosyl N,N'-di-(2-chloroethyl) phosphoric acid diamide]
[5]
  most effective agent (cytotoxic activity): always the most effective agent
[6]
  most effective agent (cytotoxic activity): always the most effective agent
[7]
  most effective agent (cytotoxic activity): always the most effective agent

## O=P(NCCCl)(NCCCl)OC1O[C@H](CO)[C@@H](O[C@@H]2O[C@H](CO)[C@H](O)[C@H](O)[C@H]2O)[C@H](O)[C@H]1O (some centres unmarked) [Compound 50]
glycosidases
  cleavage required for the release of IPM: cleavage of two different glycosidic bonds was required
[2]
  stability: stable

## O=P(NCCCl)(NCCCl)O[C@@H]1O[C@H](CO)[C@@H](O[C@@H]2O[C@H](CO)[C@@H](O)[C@H](O)[C@H]2O)[C@H](O)[C@H]1O [Compound 51β, 4-O-(β-D-Glucopyranosyl) β-D-glucopyranosyl N,N'-di-(2-chloroethyl) phosphoric acid diamide]
β-glucosidase
  complete cleavage by a single enzyme: could be completely cleaved by a single enzyme
